In US8192962B2, “Processes for detecting toxic substances” (Daikin Industries, Ltd., priority 2001, dated 2012):

System: Energy system protein genes
Experiment: DNA chip mRNA expression in yeast, energy system protein genes (Table 4)
Assay type: cell-based, Saccharomyces cerevisiae S288C
Method in brief: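 Ratios compare mRNA levels in stressed and control S. cerevisiae. Each toxicant was applied for two hours to log-phase cultures at 25° C. at a sub-lethal, growth-inhibiting level; fluorescent cDNA (Cy3- or Cy5-dUTP) was hybridized to a genome-wide yeast chip for over 12 h at 65° C.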

For `[Cl][Pb][Cl]` [(4), PbCl2], the “The level of expressed mRNA in the presence of chemical substance/The level of expressed mRNA in the absence of chemical substance” value (yeast gene YAL060W) was 2.7, the “The level of expressed mRNA in the presence of chemical substance/The level of expressed mRNA in the absence of chemical substance” value (yeast gene YBL058W, cells incubated two hours with the chemical substance) was 1.1 and the “The level of expressed mRNA in the presence of chemical substance/The level of expressed mRNA in the absence of chemical substance” value (yeast gene YBL099W, cells incubated two hours with the chemical substance) was 1.4. For the same compound, the “The level of expressed mRNA in the presence of chemical substance/The level of expressed mRNA in the absence of chemical substance” value (yeast gene YBR001C, cells incubated two hours with the chemical substance) was 1.4, the “The level of expressed mRNA in the presence of chemical substance/The level of expressed mRNA in the absence of chemical substance” value (yeast gene YBR185C, cells incubated two hours with the chemical substance) was 2.0 and the “The level of expressed mRNA in the presence of chemical substance/The level of expressed mRNA in the absence of chemical substance” value (yeast gene YBR221C, cells incubated two hours with the chemical substance) was 1.5. For the same compound, the “The level of expressed mRNA in the presence of chemical substance/The level of expressed mRNA in the absence of chemical substance” value (yeast gene YCL040W) was 2.0, the “The level of expressed mRNA in the presence of chemical substance/The level of expressed mRNA in the absence of chemical substance” value (yeast gene YCR012W) was 1.2 and the “The level of expressed mRNA in the presence of chemical substance/The level of expressed mRNA in the absence of chemical substance” value (yeast gene YCR046C, cells incubated two hours with the chemical substance) was 1.6. For the same compound, the “The level of expressed mRNA in the presence of chemical substance/The level of expressed mRNA in the absence of chemical substance” value (yeast gene YCR105W, cells incubated two hours with the chemical substance) was 3.0, the “The level of expressed mRNA in the presence of chemical substance/The level of expressed mRNA in the absence of chemical substance” value (yeast gene YDL021W) was 3.7 and the “The level of expressed mRNA in the presence of chemical substance/The level of expressed mRNA in the absence of chemical substance” value (yeast gene YDL067C, cells incubated two hours with the chemical substance) was 1.3. The “The level of expressed mRNA in the presence of chemical substance/The level of expressed mRNA in the absence of chemical substance” value (yeast gene YDL078C, cells incubated two hours with the chemical substance) was 0.8, the “The level of expressed mRNA in the presence of chemical substance/The level of expressed mRNA in the absence of chemical substance” value (yeast gene YDL107W, cells incubated two hours with the chemical substance) was 2.2 and the “The level of expressed mRNA in the presence of chemical substance/The level of expressed mRNA in the absence of chemical substance” value (yeast gene YDL174C) was 1.3. For the same compound, the “The level of expressed mRNA in the presence of chemical substance/The level of expressed mRNA in the absence of chemical substance” value (yeast gene YDL181W, cells incubated two hours with the chemical substance) was 1.8, the “The level of expressed mRNA in the presence of chemical substance/The level of expressed mRNA in the absence of chemical substance” value (yeast gene YDR001C) was 1.0 and the “The level of expressed mRNA in the presence of chemical substance/The level of expressed mRNA in the absence of chemical substance” value (yeast gene YDR050C, cells incubated two hours with the chemical substance) was 1.8. The “The level of expressed mRNA in the presence of chemical substance/The level of expressed mRNA in the absence of chemical substance” value (yeast gene YDR079W, cells incubated two hours with the chemical substance) was 1.1, the “The level of expressed mRNA in the presence of chemical substance/The level of expressed mRNA in the absence of chemical substance” value (yeast gene YDR178W, cells incubated two hours with the chemical substance) was 2.2 and the “The level of expressed mRNA in the presence of chemical substance/The level of expressed mRNA in the absence of chemical substance” value (yeast gene YDR231C) was 1.5. The “The level of expressed mRNA in the presence of chemical substance/The level of expressed mRNA in the absence of chemical substance” value (yeast gene YDR298C, cells incubated two hours with the chemical substance) was 1.3, the “The level of expressed mRNA in the presence of chemical substance/The level of expressed mRNA in the absence of chemical substance” value (yeast gene YDR377W, cells incubated two hours with the chemical substance) was 1.4 and the “The level of expressed mRNA in the presence of chemical substance/The level of expressed mRNA in the absence of chemical substance” value (yeast gene YDR529C, cells incubated two hours with the chemical substance) was 3.2. For the same compound, the “The level of expressed mRNA in the presence of chemical substance/The level of expressed mRNA in the absence of chemical substance” value (yeast gene YEL024W, cells incubated two hours with the chemical substance) was 1.1, the “The level of expressed mRNA in the presence of chemical substance/The level of expressed mRNA in the absence of chemical substance” value (yeast gene YEL039C, cells incubated two hours with the chemical substance) was 5.1 and the “The level of expressed mRNA in the presence of chemical substance/The level of expressed mRNA in the absence of chemical substance” value (yeast gene YER178W) was 1.0. For the same compound, the “The level of expressed mRNA in the presence of chemical substance/The level of expressed mRNA in the absence of chemical substance” value (yeast gene YFL057C) was 1.8, the “The level of expressed mRNA in the presence of chemical substance/The level of expressed mRNA in the absence of chemical substance” value (yeast gene YFR053C) was 2.2 and the “The level of expressed mRNA in the presence of chemical substance/The level of expressed mRNA in the absence of chemical substance” value (yeast gene YGL018C, cells incubated two hours with the chemical substance) was 3.0. The “The level of expressed mRNA in the presence of chemical substance/The level of expressed mRNA in the absence of chemical substance” value (yeast gene YGL062W) was 0.6, the “The level of expressed mRNA in the presence of chemical substance/The level of expressed mRNA in the absence of chemical substance” value (yeast gene YGL187C, cells incubated two hours with the chemical substance) was 1.8 and the “The level of expressed mRNA in the presence of chemical substance/The level of expressed mRNA in the absence of chemical substance” value (yeast gene YGL191W, cells incubated two hours with the chemical substance) was 1.8. For the same compound, the “The level of expressed mRNA in the presence of chemical substance/The level of expressed mRNA in the absence of chemical substance” value (yeast gene YGL205W, cells incubated two hours with the chemical substance) was 0.8, the “The level of expressed mRNA in the presence of chemical substance/The level of expressed mRNA in the absence of chemical substance” value (yeast gene YGL256W, cells incubated two hours with the chemical substance) was 1.3 and the “The level of expressed mRNA in the presence of chemical substance/The level of expressed mRNA in the absence of chemical substance” value (yeast gene YGR043C) was 7.9. For the same compound, the “The level of expressed mRNA in the presence of chemical substance/The level of expressed mRNA in the absence of chemical substance” value (yeast gene YGR062C, cells incubated two hours with the chemical substance, 25° C., YPD medium) was 1.4, the “The level of expressed mRNA in the presence of chemical substance/The level of expressed mRNA in the absence of chemical substance” value (yeast gene YGR087C, cells incubated two hours with the chemical substance) was 0.6 and the “The level of expressed mRNA in the presence of chemical substance/The level of expressed mRNA in the absence of chemical substance” value (yeast gene YGR174C, cells incubated two hours with the chemical substance) was 2.4. The “The level of expressed mRNA in the presence of chemical substance/The level of expressed mRNA in the absence of chemical substance” value (yeast gene YGR192C) was 1.0, the “The level of expressed mRNA in the presence of chemical substance/The level of expressed mRNA in the absence of chemical substance” value (yeast gene YGR244C) was 1.6 and the “The level of expressed mRNA in the presence of chemical substance/The level of expressed mRNA in the absence of chemical substance” value (yeast gene YGR254W) was 1.3. The “The level of expressed mRNA in the presence of chemical substance/The level of expressed mRNA in the absence of chemical substance” value (yeast gene YHR179W) was 0.7, the “The level of expressed mRNA in the presence of chemical substance/The level of expressed mRNA in the absence of chemical substance” value (yeast gene YIL160C) was 3.5 and the “The level of expressed mRNA in the presence of chemical substance/The level of expressed mRNA in the absence of chemical substance” value (yeast gene YIR031C, cells incubated two hours with the chemical substance) was 0.6. For the same compound, the “The level of expressed mRNA in the presence of chemical substance/The level of expressed mRNA in the absence of chemical substance” value (yeast gene YJL052W) was 1.8, the “The level of expressed mRNA in the presence of chemical substance/The level of expressed mRNA in the absence of chemical substance” value (yeast gene YJL121C, cells incubated two hours with the chemical substance) was 0.8 and the “The level of expressed mRNA in the presence of chemical substance/The level of expressed mRNA in the absence of chemical substance” value (yeast gene YJL166W, cells incubated two hours with the chemical substance) was 1.3. The “The level of expressed mRNA in the presence of chemical substance/The level of expressed mRNA in the absence of chemical substance” value (yeast gene YJL216C, cells incubated two hours with the chemical substance) was 0.9 and the “The level of expressed mRNA in the presence of chemical substance/The level of expressed mRNA in the absence of chemical substance” value (yeast gene YJR009C) was 1.0.
